Entries after “also recorded” stand apart in the source; their conditions may differ. Like-named read-outs stand apart in the source and are kept apart here. *1 amine or outer side, *2 acyl side, *3 side chain or, on linkers, in order; H or OH if unused. Where a SMILES comes first, the peptide text is derived from it. The star is where a group is joined. Glutaryl = O=C(CCCC(=O)[*:2])[*:1]; pNA = O=[N+]([O-])c1ccc(N*)cc1; Cbz = O=C(OCc1ccccc1)*
Columns and labels:
[1] = test system: monoclonal receptor NPN 43C9; assay: Amide hydrolysis by monoclonal receptor NPN 43C9, kinetics and inhibition; format: biochemical, mouse; details: for nature of inhibition / Ki: substrate Compound 28; for Km: printed figure = km × 10^6; for Vmax: figure = Vmax × 10^9; for kcat: printed figure = kcat × 10^4
Experimental: FIG. 6 is a graph showing a Lineweaver-Burk plot for amide hydrolysis of reactant ligand Compound 28 by monoclonal receptor NPN 43C9 present at 10 uM. Rates were determined as discussed hereinafter. The ordinate is in units of 1/initial velocity (1/v) in units of minutes/moles (M^-1 min) from zero through 10^7. The abscissa is in units of the reciprocal of the concentration of Compound 28 [1/(28)] in micromoles (uM^-1).
FIG. 7 is a graph showing plots of steady-state velocity (V×10^-9M^-1 min) as a function of total NPN 43C9 monoclonal receptor concentration (At ×10^-6 M) in the absence (I=O) and presence (I=44,=88 and =131) of different concentrations of reversible tight-binding inhibitor (Compound 24i). The indicia adjacent to each curve (I=O, I=44, I=88, and I=131) represent the total micromolar (uM) concentrations of that inhibitor. Each data set was obtained at a constant reactant ligand concentration (1600 uM). […] The data obtained were thereafter fit to an equation shown and discussed hereinafter.
FIG. 8 is a graph showing three further Lineweaver-Burk plots for the hydrolysis of Compound 28 by receptor NPN 43C9 present at 8 uM. Initial velocities were calculated as discussed hereinafter, whereas the ordinate and abscissa are as discussed for FIG. 6, albeit the values of the ordinate are from zero to 3×10^7 M^-1 min. In those plots, the uppermost plot ( ) was prepared from data obtained in the presence of 2000 uM Compound 29 as inhibitor, the middle plot ( ) was obtained in the presence of 1000 uM Compound 29 as inhibitor, and the lowest plot ( ) was obtained in the absence of inhibitor.
It was therefore stored at 4 degrees C in buffer containing 150 mM sodium chloride that was removed immediately prior to use by dialysis against 50 mM CHES, 80 uM NaCl at a pH value of 9.0, and at a temperature of 22 degrees C. This receptor was utilized at concentrations of 10 and 8 uM (as an average value determined from a BCA assay and O. D. 280 nm, using a molecular weight of 160,000 daltons for IgG).
Kinetic parameters for hydrolysis of reactant ligand Compound 28 were determined by measuring the initial linear absorbance change at 404 nm, release of p-nitroaniline. Monoclonal receptor concentrations utilized were 10 and 8 uM, as noted previously. Reactions were initiated by admixture of varying aliquots of a 50 or 100 mM stock solution of Compound 28 in DMF, to provide reactant ligand substrate concentrations of 100-1600 uM. Further studies were carried out using a mixed organic solvent containing dimethyl sulfoxide (DMSO) and acetonitrile (CH3 CN) to dissolve the ligand. In those studies, a final concentration of 5 percent (v/v) of organic solvent was utilized with DMSO comprising 0.2-2.4 volume percent of the final concentration and CH3 CN comprising the remainder of the organic solvent.
Transacylation reactions utilizing an amide reactant ligand as substrate have been studied with Compound 28 as the reactant ligand. In these studies, forty-four hybridomas were prepared that secreted forty-four monoclonal receptors that bound to a conjugate of the immunizing hapten and BSA as carrier protein. Of those forty-four receptors, two appeared to catalyze the hydrolysis reaction of Compound 28. One of those two receptors, NPN 43C9, was selected for further study, as is discussed below.
The initial rates of hydrolysis measured as a function of reactant ligand (Compound 28) concentration followed Michaelis-Menten kinetics.
*Parameters in the upper horizontal row were obtained in the presence of
DMF as a Compound 28solubilizing solvent, whereas parameters in the lower
horizontal row were detained in the presence of DMSO/CH3 CN as
Compound 28solubilizing solvent.
To establish the specificity of monoclonal receptor NPN 43C9, the rates of hydrolysis of potential reactant ligands modified in their acyl or aniline portions were studied. […]

[2] = test system: monoclonal receptor P3 6D4; assay: Stoichiometric transacylation reaction of monoclonal receptor P3 6D4 with coumarin ester Compound 5 (fluorescence) and its inhibition/inactivation; format: biochemical, mouse
Experimental: A Perkin-Elmer LS-5 fluorescence spectrometer was operated at a fixed wavelength, using 355 nanometers (nm) for excitation and measuring the emission at 455 nm. A stock solution of the coumarin ester 5 was prepared in dioxane and was diluted to the desired concentrations in Tris-HCl (50 mM, pH 7) or sodium phosphate (50 mM, pH 4-9).
Reactions were run at 23 degrees C and were initiated by the addition of an aliquot of antibody solution (1 mg/ml) to substrate solutions to provide a final protein concentration of 100 nM. Final fluorescence values were determined by hydrolysis of the substrate with pig liver esterase. The observed reaction rate was corrected for spontaneous hydrolysis. Reaction kinetics were studied by measuring initial rates under pseudo-first order conditions. Active protein concentration was extrapolated from fluorescence values at the end of the reaction. The kinetic parameters were obtained by fitting the data to a hyperbolic curve and from double reciprocal plots. Inhibition constants were determined from the Lineweaver-Burk plot data with at least five inhibitor concentrations. All the data were studied by a least squares analysis.
Antibody preparations were inactivated without introducing fluorescent products by the addition of the activated ester (Compound 8) in dioxane to a solution of the IgG (5 mg/ml) in Tris-HCl (50 mM, pH 6.5) at a ratio of 5 moles of the ester (Compound 8) per mole IgG.
Protein modification was performed in an analogous manner, by the addition of a dioxane solution of the reagent at a known concentration to the antibody. The solution was incubated for 30 minutes before filtration through Sephadex G-25. The activity remaining was compared to control samples. Aliquots of IgG (5 mg/ml) inactivated with the ester (Compound 8) were diluted with four volumes of phosphate buffer (50 mM, pH 4-9, at intervals of 1 pH unit). Any pH change was recorded, and the sample was stored at 4 degrees C for 24 hours.
Initially, the ester was used at a concentration that was about four-fold greater than that of the protein, and the mixture was incubated at pH 7.2 for 10 minutes. Any change in fluorescence above background was noted.
The termination of the reaction is noted by the return of the rate of fluorescence increase to the background level.

[3] = DMF as Compound 28-solubilizing solvent
[4] = DMSO/CH3CN as Compound 28-solubilizing solvent

N[C@@H](CSCc1ccccc1)C(=O)Nc1ccc([N+](=O)[O-])cc1 [S-benzyl-L-cysteine p-nitroanilide, reference compound]
substrate acceptance by NPN 43C9 [1]: not reactant ligand substrates

CC(C)[C@H](N)C(=O)Nc1ccc([N+](=O)[O-])cc1 [L-valine p-nitroanilide, reference compound]
substrate acceptance by NPN 43C9 [1]: not reactant ligand substrates

N=C(N)NCCC[C@H](NC(=O)OCc1ccccc1)C(=O)Nc1ccc([N+](=O)[O-])cc1 [N-alpha-CBZ-L-arginine p-nitroanilide, reference compound]
substrate acceptance by NPN 43C9 [1]: not reactant ligand substrates

O=C(O)CN(CCN(CC(=O)O)CC(=O)O)CC(=O)O [EDTA, reference compound]
effect of additive on antibody-enhanced esterolysis of Compound 5 [2]: failure of added EDTA to affect the reaction

CC(C)C[C@H](NC(=O)CNC(=O)CNC(=O)OCc1ccccc1)C(=O)Nc1ccc([N+](=O)[O-])cc1 [N-CBZ-glycyl-glycyl-L-leucine p-nitroanilide, reference compound] (Cbz-Gly-Gly-Leu-pNA)
substrate acceptance by NPN 43C9 [1]: not reactant ligand substrates

zinc [reference compound]
effect of additive on antibody-enhanced esterolysis of Compound 5 ([2]; up to 100 micromolar added zinc and picolinic acid, EDTA concentration not given): No effect

O=C(O)Cc1ccc(NC(=O)C(F)(F)F)cc1 [carboxylate product of ester hydrolysis]
Ki ([2]; summary, kinetic parameters at low pH values, read-out: Ki (inhibition of antibody esterolysis)): 7 µM

O=C(O)CCCC(=O)Nc1ccc(CC(=O)Nc2ccccc2[N+](=O)[O-])cc1
substrate acceptance by NPN 43C9 [1]: non-substrates

N=C(N)NCCCC(NC(=O)c1ccccc1)C(=O)Nc1ccc([N+](=O)[O-])cc1 (racemic) [reference compound]
substrate acceptance by NPN 43C9 [1]: not reactant ligand substrates

CC(=O)Nc1ccc(CP(=O)(O)Nc2ccc([N+](=O)[O-])cc2)cc1 [inhibitor]
nature of inhibition [1]: reversible

O=C(O)CCCC(=O)Nc1ccc(CC(=O)Nc2cccc([N+](=O)[O-])c2)cc1 [Compound 29]
substrate acceptance by NPN 43C9 [1]: lack of receptor-assisted hydrolysis
substrate acceptance by NPN 43C9 ([1]; listed as Compound 28 with m-nitroaniline for p-nitroaniline): non-substrates
nature of inhibition [1]: inhibitor

O=C(Nc1ccc([N+](=O)[O-])cc1)[C@@H]1CCCN1 [L-proline p-nitroanilide, reference compound]
substrate acceptance by NPN 43C9 [1]: not reactant ligand substrates

CC(=O)N[C@@H](CC(N)=O)C(=O)Nc1ccc([N+](=O)[O-])cc1 [acetyl-L-asparagine p-nitroanilide, reference compound]
substrate acceptance by NPN 43C9 [1]: not reactant ligand substrates

CC(=O)Nc1ccc(CC(=O)Oc2ccc3ccc(=O)oc3c2)cc1 [reference compound]
stoichiometric antibody reaction (release of alcohol) [2]: not detected

CC(C)C[C@H](NC(=O)[C@H](CCC(=O)O)NC(=O)CCCC(=O)O)C(=O)Nc1ccc([N+](=O)[O-])cc1 [glutaryl-glutamyl-L-leucine p-nitroanilide, reference compound] (Glutaryl-Glu-Leu-pNA)
substrate acceptance by NPN 43C9 [1]: not reactant ligand substrates

O=C(O)CCCC(=O)Nc1ccc(CC(=O)Nc2ccc([N+](=O)[O-])cc2)cc1 [Compound 28]
rate acceleration / rate enhancement relative to uncatalyzed reaction [1]: 10^5
substrate acceptance by NPN 43C9 [1]: substrate
kcat/kuncat [1, 3]: 1.5 × 10^5
Km ([1]; DMF as Compound 28-solubilizing solvent, pH 9.0): 370 µM
Vmax [1, 3]: 8.3 nM/s
kcat [1, 3]: 0.00083 s⁻¹
kcat/kuncat [1, 4]: 2.5 × 10^5
Vmax [1, 4]: 7 nM/s
kcat [1, 4]: 0.00133 s⁻¹
Km [1, 4]: 562 µM
available transition state binding energy ΔΔG ([1]; difference between binding of inhibitor (Ki) and Compound 28 (Km)): -2.2 kcal/mol

O=C(Cc1ccc(NC(=O)C(F)(F)F)cc1)ON1C(=O)CCC1=O [Compound 6]
inactivation of receptor [2]: specifically combine with the antibodies to produce an inactive product

CC(=O)Nc1ccc(CP(=O)(O)Nc2ccc([N+](=O)[O-])cc2)cc1 [Compound 24i]
calculated maximum number of enzyme binding sites ([1]; detected with inhibitor Compound 24i): 5.1±0.9
Ki ([1]; infinite reactant ligand concentration, inhibitor binding to receptor in a complex, read-out: inhibition constant kii): 2.5 µM
Ki ([1]; low substrate concentration, inhibitor binding to free receptor, read-out: inhibition constant kis): 10 µM
nature of inhibition [1]: Tight binding inhibition; also recorded: mixed inhibitor

O=C(O)CCCC(=O)Nc1ccc(CC(=O)Oc2ccc([N+](=O)[O-])cc2)cc1
substrate acceptance by NPN 43C9 [1]: catalytically hydrolyzed

O=C(N[C@@H](Cc1ccc(O)cc1)C(=O)Nc1ccc([N+](=O)[O-])cc1)c1ccccc1 [N-benzoyl-L-tryrosine p-nitroanilide, reference compound]
substrate acceptance by NPN 43C9 [1]: not reactant ligand substrates

NCCCC[C@H](N)C(=O)Nc1ccc([N+](=O)[O-])cc1 [L-lysine p-nitroanilide, reference compound]
substrate acceptance by NPN 43C9 [1]: not reactant ligand substrates

O=C(O)CCCC(=O)N[C@@H](Cc1ccccc1)C(=O)Nc1ccc([N+](=O)[O-])cc1 [N-glutaryl-L-phenylalanine p-nitroanilide, reference compound]
substrate acceptance by NPN 43C9 [1]: not reactant ligand substrates

CC(C)C[C@H](N)C(=O)Nc1ccc([N+](=O)[O-])cc1 [L-leucine p-nitroanilide, reference compound]
substrate acceptance by NPN 43C9 [1]: not reactant ligand substrates
